Common to all, as to assay type: physicochemical
A short description of series [1]: Estimated solubility in solvents at room temperature (stepwise solvent addition). Particulars: for solubility: thermodynamic from solid. The protocol:
Approximately 2 mg solids were added into a 3-mL glass vial. Solvents in Table 39 were then added step wise (100 μL per step) into the vials until the solids were dissolved or a total volume of 2 mL was reached. Results summarized in Table 39 were used to guide the solvent selection in polymorph screening. […] Approximately 2 mg solids were added into a 3-mL glass vial. Solvents in Table 4-6 were then added stepwise (100 μL per step) into the vials until the solids were dissolved or a total volume of 2 mL was reached. Results are summarized in Table 57, which were used to guide the solvent selection in polymorph screening.

Series [2] is described as follows: Dynamic vapor sorption (DVS): hygroscopicity and physical stability under humidity. The protocol: Dynamic Vapor Sorption (DVS) was measured via a SMS (Surface Measurement Systems) DVS Intrinsic.
To evaluate the hygroscopicity and physical stability of Compound 2 Type A under increased humidity, DVS isotherm data was collected at 25° C. with the starting sample pre-dried at 0% RH until a mass change rate lower than 0.002%/min.

Series [3] can be described thus: Physical form stability on storage or drying (XRPD/TGA). The source says:
A sample of Compound 2 Type B reference was generated via evaporation of a solution in MeOH/MIBK (v/v, 4:1) at room temperature. […] As the sample was still wet after form transformation, Compound 2 Type B is suspected to be a metastable form at ambient conditions.

SMILES strings stand for the structures. ≈ marks a conversion by molar mass, not a printed value.

As for `Cc1cc(-c2ccnc(Nc3cnn(C)c3)n2)ccc1CNC(=O)N1CC(OC(C)C)C1` [Compound 1 Type A, 3-isopropoxy-N-(2-methyl-4-(2-((1-methyl-1H-pyrazol-4-yl)amino)pyrimidin-4-yl)benzyl)azetidine-1-carboxamide], the solubility (commonly the concentration that dissolves in the medium under given conditions) was 3500 to 4200 µg/mL (≈ 8.04 to 9.64 mM) in series [1] (organic solvent or mixture, 1,4-Dioxane, room temperature); 2200 to 2400 µg/mL (≈ 5.05 to 5.51 mM) in series [1] (organic solvent or mixture, 2-MeTHF, room temperature); 2300 to 2600 µg/mL (≈ 5.28 to 5.97 mM) in series [1] (organic solvent or mixture, ACN, room temperature); over 54000 µg/mL in series [1] (organic solvent or mixture, Acetic acid, room temperature); 4600 to 5800 µg/mL (≈ 10.6 to 13.3 mM) in series [1] (organic solvent or mixture, Acetone, room temperature); 20000 to 40000 µg/mL (≈ 45.9 to 91.8 mM) in series [1] (organic solvent or mixture, CHCl3, room temperature). For the same molecule, the solubility is 12000 to 24000 µg/mL (≈ 27.6 to 55.1 mM) in series [1] (organic solvent or mixture, DCM, room temperature); over 54000 µg/mL in series [1] (organic solvent or mixture, DMAc, room temperature); over 38000 µg/mL in series [1] (organic solvent or mixture, DMSO, room temperature); 1400 to 1500 µg/mL (≈ 3.21 to 3.44 mM) in series [1] (organic solvent or mixture, EtOAc, room temperature); 4400 to 5500 µg/mL (≈ 10.1 to 12.6 mM) in series [1] (organic solvent or mixture, EtOH, room temperature); 3000 to 3500 µg/mL (≈ 6.89 to 8.04 mM) in series [1] (organic solvent or mixture, IPA, room temperature). In addition, the solubility in series [1] (organic solvent or mixture, IPAc, room temperature) is under 1500 µg/mL; in series [1] (organic solvent or mixture, MIBK, room temperature) it was under 1400 µg/mL; in series [1] (organic solvent or mixture, MTBE, room temperature) it was under 1300 µg/mL; in series [1] (organic solvent or mixture, MeOH, room temperature) it was 12500 to 25000 µg/mL (≈ 28.7 to 57.4 mM); in series [1] (organic solvent or mixture, NMP, room temperature), over 56000 µg/mL; in series [1] (organic solvent or mixture, THF, room temperature) it was 6000 to 9000 µg/mL (≈ 13.8 to 20.7 mM). The solubility in series [1] (organic solvent or mixture, Toluene, room temperature) is under 900 µg/mL; in series [1] (organic solvent or mixture, n-Heptane, room temperature) it was under 1500 µg/mL; in series [1] (water, H2O, room temperature) it was under 1100 µg/mL.

Regarding `Cc1cc(-c2ccnc(Nc3cnn(C)c3)n2)ccc1CNC(=O)N1CC(OC(C)C)C1` [Compound 1 Type B, 3-isopropoxy-N-(2-methyl-4-(2-((1-methyl-1H-pyrazol-4-yl)amino)pyrimidin-4-yl)benzyl)azetidine-1-carboxamide], in series [2] (25° C.), the “Form change after the DVS test (XRPD)” value is “no form change” and the “Hygroscopicity (DVS)” value is “slightly hygroscopic”. Also, in series [2] (relative humidity (RH) less than 10%, 25° C.), the “Behaviour at low humidity (DVS)” value is recorded as “tends to dehydrate”. Moreover, in series [3] (vacuum dried at 80° C. for 15 hrs), the “Physical stability on vacuum drying” value is “physically unstable”.

Take `Cc1cc(-c2ccnc(Nc3cnn(C)c3)n2)ccc1CNC(=O)N1CC(OC(C)C)C1` [Compound 1 Type E, 3-isopropoxy-N-(2-methyl-4-(2-((1-methyl-1H-pyrazol-4-yl)amino)pyrimidin-4-yl)benzyl)azetidine-1-carboxamide]: in series [3] (ambient conditions for 2 days), the “Solid form after storage (XRPD)” value is reported as “conformed to Type B”.

As for `Cc1cc(-c2ccnc(Nc3cnn(C)c3)n2)ccc1CNC(=O)N1CC(OC(C)C)C1.Cl` [Compound 2 Type A], the solubility in series [1] (20 °C, organic solvent or mixture, 1,4-dioxane, room temperature (RT, 20±3° C.)) was under 1000 µg/mL; in series [1] (20 °C, organic solvent or mixture, 2-MeTHF, room temperature (RT, 20±3° C.)), under 1000 µg/mL; in series [1] (20 °C, organic solvent or mixture, ACN, room temperature (RT, 20±3° C.)) it was under 1000 µg/mL; in series [1] (20 °C, organic solvent or mixture, Acetone, room temperature (RT, 20±3° C.)), under 900 µg/mL; in series [1] (20 °C, organic solvent or mixture, CHCl3, room temperature (RT, 20±3° C.)), under 1100 µg/mL; in series [1] (20 °C, organic solvent or mixture, DCM, room temperature (RT, 20±3° C.)), under 1100 µg/mL. Besides, the solubility was 22000 to 44000 µg/mL in series [1] (20 °C, organic solvent or mixture, DMAc, room temperature (RT, 20±3° C.)); 14000 to 21000 µg/mL in series [1] (20 °C, organic solvent or mixture, DMSO, room temperature (RT, 20±3° C.)); under 1000 µg/mL in series [1] (20 °C, organic solvent or mixture, EtOAc, room temperature (RT, 20±3° C.)); 4400 to 5500 µg/mL in series [1] (20 °C, organic solvent or mixture, EtOH, room temperature (RT, 20±3° C.)); 1700 to 1800 µg/mL in series [1] (20 °C, organic solvent or mixture, IPA, room temperature (RT, 20±3° C.)); under 1200 µg/mL in series [1] (20 °C, organic solvent or mixture, IPAc, room temperature (RT, 20±3° C.)). Besides, the solubility in series [1] (20 °C, organic solvent or mixture, MIBK, room temperature (RT, 20±3° C.)) was under 1000 µg/mL; in series [1] (20 °C, organic solvent or mixture, MTBE, room temperature (RT, 20±3° C.)), under 1000 µg/mL; in series [1] (20 °C, organic solvent or mixture, MeOH, room temperature (RT, 20±3° C.)), over 34000 µg/mL; in series [1] (20 °C, organic solvent or mixture, NMP, room temperature (RT, 20±3° C.)) it was 14700 to 22000 µg/mL; in series [1] (20 °C, organic solvent or mixture, THF, room temperature (RT, 20±3° C.)) it was under 900 µg/mL; in series [1] (20 °C, organic solvent or mixture, Toluene, room temperature (RT, 20±3° C.)), under 1100 µg/mL. For the same molecule, in series [1] (20 °C, organic solvent or mixture, n-heptane, room temperature (RT, 20±3° C.)), the solubility was under 900 µg/mL. The “Behaviour in the solubility test (stability of the salt)” value in series [1] (H2O, room temperature, colour change of solids from orange to faint yellow) is reported as “N/A: disproportionation occurred along with obvious color change of solids from orange to faint yellow”. Besides, in series [2] (25° C.), the “Form change after the DVS test (XRPD)” value is listed as “no form change”. For the same molecule, in series [2] (25° C.), the “Hygroscopicity (DVS)” value is on record as “slightly hygroscopic”. The “Water uptake (DVS)” value in series [2] (25° C./80% RH, sample pre-dried at 0% RH) came to 1.0%.

Turning to `Cc1cc(-c2ccnc(Nc3cnn(C)c3)n2)ccc1CNC(=O)N1CC(OC(C)C)C1.Cl` [Compound 2 Type B], the “Solid form change during air drying (XRPD)” value in series [3] (air drying at ambient conditions) was “converted into Compound 2 Type A”.

(Values after patent US20180282310A1, “FORMS AND COMPOSITIONS OF BIARYL INHIBITORS OF BRUTON'S TYROSINE KINASE” (BIOGEN MA INC., priority 2015, published 2018).)
